Where two headings read alike, the source gives them in different places.
Legend:
[1] = system: single transgenic HPS70/hGH primary hepatocytes (PHGH); test: toxicity test, hGH secretion by primary transgenic hepatocytes (PHGH); format: cell-based, mice; set-up: hGH secreted, PHGH 1 h / hGH secreted, PHGH 5 h / hGH secreted, PHGH 1 + 24 h / hGH secreted, PHGH 5 + 24: unit of the concentration uncertain
Description: On the basis of the results illustrated, for the further analyses, clone no. […] The response to the toxic stress of the clone MMH/GH5 was then compared with the one obtained in single transgenic HPS70/hGH primary hepatocytes (PHGH). A representative sample of the cell line derived from said clone MMH/GH5 was deposited in accordance with and for the purposes of the Treaty of Budapest on the international recognition of deposit of micro-organisms for the purposes of the patents procedure with the AID “Centro di Biotecnologie Avanzate (CBA), Interlab Cell Line Collection (ICLC)” Servizio Biotecnologie, Largo R. Benzi, 10, 16132 Genova, Italy, on Jul. 30, 2002, where it was given identification number PD 02007.
(§1) In table 3 the cellular survival percentage was determined with the Trypan Blue exclusion method. […]
(§2) For treatment, the two types of cells were treated with different concentrations of the compounds for 1 or 5 hours and then with normal medium for a further 24 hours. The effects of the treatment were assessed as described previously for the inorganic toxicants.

[2] = system: MMH/GH5 cells; test: cellular survival of MMH/GH5, Trypan Blue exclusion; format: cell-based, mice; set-up: % cellular survival, MMHGH/5 1 + 24 h / % cellular survival, MMHGH/5 5 + 24 / % vitality of the cells, MMH/GH 1 + 24 h / % vitality of the cells, MMH/GH 5 + 24 h: unit of the concentration uncertain; settings: for % cellular survival, MMHGH/5 1 + 24 h / % vitality of the cells, MMH/GH 1 + 24 h: 1 h treatment + 24 h normal medium; for % cellular survival, MMHGH/5 5 + 24 / % vitality of the cells, MMH/GH 5 + 24 h: 5 h treatment + 24 h normal medium
Description: (§3) This different behaviour is explained by the greater sensitivity to the toxicant of the PHGH with respect to the MMH/GH5 as shown by analysis of the cellular vitality performed with the Trypan Blue method (FIG. 1, graph B). […] Therefore the greater resistance of the cells MMH/GH/5 to the toxicants constitutes another evident advantage as it permits the exclusion of false negatives in which the non-release of hGH, due to cellular death, is interpreted as non-toxicity of the compound. When the supernatant is collected after 5 hours of treatment followed by 24 hours of culture with normal medium (FIG. 1 graph C) the PHGHs respond, at the lowest concentrations of the two toxicants, with high levels of secretion of hGH and, at the highest concentrations, with low levels of secretion of hGH (lower cellular survival, graph D).
as §1, §2

[3] = system: primary hepatocytes (PHGH); test: cellular survival of PHGH, Trypan Blue exclusion; format: cell-based, mice; set-up: % cellular survival, PHGH 1 + 24 h / % cellular survival, PHGH 5 + 24 / % vitality of the cells, PHGH 1 + 24 h / % vitality of the cells, PHGH 5 + 24 h: unit of the concentration uncertain; settings: for % cellular survival, PHGH 1 + 24 h / % vitality of the cells, PHGH 1 + 24 h: 1 h treatment + 24 h normal medium; for % cellular survival, PHGH 5 + 24 / % vitality of the cells, PHGH 5 + 24 h: 5 h treatment + 24 h normal medium
Description: as §3, §1, §2

[4] = system: MMH/GH5 cells (Clone 5); set-up: hGH secreted, MMHGH/5 1 + 24 h / hGH secreted, MMHGH/5 5 + 24 / hGH secreted, MMHGH/5 1 h / hGH secreted, MMHGH/5 5 h: dose or concentration left out as unconfirmed
[5] = 0.5 (unit uncertain), Trypan Blue
[6] = 1 (unit uncertain), Trypan Blue
[7] = 10 (unit uncertain), Trypan Blue
[8] = 50 (unit uncertain), Trypan Blue (Table 4)
[9] = 5 (unit uncertain), Trypan Blue
[10] = 100 (unit uncertain), Trypan Blue
[11] = 25 (unit uncertain), 1 h treatment
[12] = 25 (unit uncertain), 1 h treatment + 24 h normal medium
[13] = 25 (unit uncertain), 5 h treatment
[14] = 25 (unit uncertain), 5 h treatment + 24 h normal medium
[15] = 50 (unit uncertain), 1 h treatment (Table 3)
[16] = 50 (unit uncertain), 1 h treatment + 24 h normal medium (Table 3)
[17] = 50 (unit uncertain), 5 h treatment (Table 3)
[18] = 50 (unit uncertain), 5 h treatment + 24 h normal medium (Table 3)
[19] = 25 (unit uncertain), Trypan Blue
[20] = 50 (unit uncertain), Trypan Blue (Table 3)
[21] = 25, 1 h treatment + 24 h normal medium
[22] = 25, 5 h treatment + 24 h normal medium
[23] = 50, 1 h treatment + 24 h normal medium (Table 3)
[24] = 50, 5 h treatment + 24 h normal medium (Table 3)

C=CC(O)CCCCC (stereo not drawn) [1-Oct, 1-octene-3-ol]
effect of the treatment (hGH secretion) ([1]; PHGH versus MMH/GH, at the end of the treatment): can be measured only in PHGH | % cellular survival, MMHGH/5 1 + 24 h [2, 5]: 90% | % cellular survival, MMHGH/5 5 + 24 [2, 5]: 50% | % cellular survival, MMHGH/5 1 + 24 h [2, 6]: 70% | % cellular survival, MMHGH/5 5 + 24 [2, 6]: 20% | % cellular survival, PHGH 1 + 24 h [3, 5]: 90% | % cellular survival, PHGH 5 + 24 [3, 5]: 60% | % cellular survival, PHGH 1 + 24 h [3, 6]: 50% | % cellular survival, PHGH 5 + 24 [3, 6]: 20% | cellular survival ([3]; PHGH, words, Table 3): reduced cellular survival

O=C1C=CCC1 [2-Cycl, 2-cyclopentene-1-one]
% cellular survival, MMHGH/5 1 + 24 h [2, 5]: 90% | % cellular survival, MMHGH/5 5 + 24 [2, 5]: 90% | % cellular survival, MMHGH/5 1 + 24 h [2, 6]: 90% | % cellular survival, MMHGH/5 5 + 24 [2, 6]: 90% | % cellular survival, PHGH 1 + 24 h [3, 5]: 90% | % cellular survival, PHGH 5 + 24 [3, 5]: 90% | % cellular survival, PHGH 1 + 24 h [3, 6]: 80% | % cellular survival, PHGH 5 + 24 [3, 6]: 60% | response (hGH secretion) in MMH/GH5 ([4]; words, Table 3): rapid response

c1ccc2c(c1)cc1ccc3cccc4ccc2c1c34 [BaP, Benzo(a)Pyrene]
stimulation of the promoter HSP70 in the PHGHs ([1]; words, Table 4): does not stimulate | % vitality of the cells, MMH/GH 1 + 24 h [2, 7]: 90% | % vitality of the cells, MMH/GH 5 + 24 h [2, 7]: 90% | % vitality of the cells, MMH/GH 1 + 24 h [2, 8]: 90% | % vitality of the cells, MMH/GH 5 + 24 h [2, 8]: 90% | % vitality of the cells, PHGH 1 + 24 h [3, 7]: 50% | % vitality of the cells, PHGH 5 + 24 h [3, 7]: 50% | % vitality of the cells, PHGH 1 + 24 h [3, 8]: 50% | % vitality of the cells, PHGH 5 + 24 h [3, 8]: 30%

O=[N+]([O-])c1ccc(Cl)c([N+](=O)[O-])c1 [CDNB, 1-Chloro-2,4-DiNitro-Benzene]
% vitality of the cells, MMH/GH 1 + 24 h [2, 9]: 80% | % vitality of the cells, MMH/GH 5 + 24 h [2, 9]: 60% | % vitality of the cells, MMH/GH 1 + 24 h [2, 8]: 70% | % vitality of the cells, MMH/GH 5 + 24 h [2, 8]: 20% | toxicity on MMH/GH5 cells compared with PHGHs ([2]; words, data in table 4): less toxic | % vitality of the cells, PHGH 1 + 24 h [3, 9]: 80% | % vitality of the cells, PHGH 5 + 24 h [3, 9]: 40% | % vitality of the cells, PHGH 1 + 24 h [3, 8]: 5% | % vitality of the cells, PHGH 5 + 24 h [3, 8]: 5% | secretion of the hGH from the MMH/GH5 cells ([4]; all the conditions tested): considerable secretion

Oc1c(Cl)c(Cl)c(Cl)c(Cl)c1Cl [PCP, PentaChloroPhenol]
% vitality of the cells, MMH/GH 1 + 24 h [2, 8]: 90% | % vitality of the cells, MMH/GH 5 + 24 h [2, 8]: 70% | % vitality of the cells, MMH/GH 1 + 24 h [2, 10]: 80% | % vitality of the cells, MMH/GH 5 + 24 h [2, 10]: 50% | % vitality of the cells, PHGH 1 + 24 h [3, 8]: 10% | % vitality of the cells, PHGH 5 + 24 h [3, 8]: 10% | % vitality of the cells, PHGH 1 + 24 h [3, 10]: 0% | % vitality of the cells, PHGH 5 + 24 h [3, 10]: 0% | toxicity for the PHGHs ([3]; words, Table 4): toxic | induction of a response in MMH/GH5 ([4]; words, Table 4): requires a prolonged exposure time to induce a response

CCCCC[C@H](O)/C=C/[C@H]1C=CC(=O)[C@@H]1CCCCCCC(=O)O [PGA1]
hGH secreted, PHGH 1 h [1, 11]: 9 pg hGH/10^6 cells | hGH secreted, PHGH 1 + 24 h [1, 12]: 13 pg hGH/10^6 cells | hGH secreted, PHGH 5 h [1, 13]: 16 pg hGH/10^6 cells | hGH secreted, PHGH 5 + 24 [1, 14]: 69 pg hGH/10^6 cells | hGH secreted, PHGH 1 h [1, 15]: 7 pg hGH/10^6 cells | hGH secreted, PHGH 1 + 24 h [1, 16]: 4 pg hGH/10^6 cells | hGH secreted, PHGH 5 h [1, 17]: 17 pg hGH/10^6 cells | hGH secreted, PHGH 5 + 24 [1, 18]: 522 pg hGH/10^6 cells | % cellular survival, MMHGH/5 1 + 24 h [2, 19]: 90% | % cellular survival, MMHGH/5 5 + 24 [2, 19]: 90% | % cellular survival, MMHGH/5 1 + 24 h [2, 20]: 90% | % cellular survival, MMHGH/5 5 + 24 [2, 20]: 90% | % cellular survival, PHGH 1 + 24 h [3, 19]: 95% | % cellular survival, PHGH 5 + 24 [3, 19]: 90% | % cellular survival, PHGH 1 + 24 h [3, 20]: 90% | % cellular survival, PHGH 5 + 24 [3, 20]: 70% | hGH secreted, MMHGH/5 1 h ([4]; 25, 1 h treatment): 10 pg hGH/10^6 cells | hGH secreted, MMHGH/5 1 + 24 h [4, 21]: 0 pg hGH/10^6 cells | hGH secreted, MMHGH/5 5 h ([4]; 25, 5 h treatment): 27 pg hGH/10^6 cells | hGH secreted, MMHGH/5 5 + 24 [4, 22]: 2 pg hGH/10^6 cells | hGH secreted, MMHGH/5 1 h ([4]; 50, 1 h treatment (Table 3)): 94 pg hGH/10^6 cells | hGH secreted, MMHGH/5 1 + 24 h [4, 23]: 116 pg hGH/10^6 cells | hGH secreted, MMHGH/5 5 h ([4]; 50, 5 h treatment (Table 3)): 47 pg hGH/10^6 cells | hGH secreted, MMHGH/5 5 + 24 [4, 24]: 9 pg hGH/10^6 cells

CCCCC[C@H](O)/C=C/[C@H]1C=CC(=O)[C@@H]1C/C=C\CCCC(=O)O [PGA2]
hGH secreted, PHGH 1 h [1, 11]: 1 pg hGH/10^6 cells | hGH secreted, PHGH 1 + 24 h [1, 12]: 0 pg hGH/10^6 cells | hGH secreted, PHGH 5 h [1, 13]: 56 pg hGH/10^6 cells | hGH secreted, PHGH 5 + 24 [1, 14]: 10 pg hGH/10^6 cells | hGH secreted, PHGH 1 h [1, 15]: 27 pg hGH/10^6 cells | hGH secreted, PHGH 1 + 24 h [1, 16]: 26 pg hGH/10^6 cells | hGH secreted, PHGH 5 h [1, 17]: 95 pg hGH/10^6 cells | hGH secreted, PHGH 5 + 24 [1, 18]: 37 pg hGH/10^6 cells | % cellular survival, MMHGH/5 1 + 24 h [2, 19]: 90% | % cellular survival, MMHGH/5 5 + 24 [2, 19]: 90% | % cellular survival, MMHGH/5 1 + 24 h [2, 20]: 90% | % cellular survival, MMHGH/5 5 + 24 [2, 20]: 90% | % cellular survival, PHGH 1 + 24 h [3, 19]: 90% | % cellular survival, PHGH 5 + 24 [3, 19]: 90% | % cellular survival, PHGH 1 + 24 h [3, 20]: 90% | % cellular survival, PHGH 5 + 24 [3, 20]: 90% | hGH secreted, MMHGH/5 1 h ([4]; 25, 1 h treatment): 1 pg hGH/10^6 cells | hGH secreted, MMHGH/5 1 + 24 h [4, 21]: 2 pg hGH/10^6 cells | hGH secreted, MMHGH/5 5 h ([4]; 25, 5 h treatment): 53 pg hGH/10^6 cells | hGH secreted, MMHGH/5 5 + 24 [4, 22]: 0 pg hGH/10^6 cells | hGH secreted, MMHGH/5 1 h ([4]; 50, 1 h treatment (Table 3)): 8 pg hGH/10^6 cells | hGH secreted, MMHGH/5 1 + 24 h [4, 23]: 92 pg hGH/10^6 cells | hGH secreted, MMHGH/5 5 h ([4]; 50, 5 h treatment (Table 3)): 107 pg hGH/10^6 cells | hGH secreted, MMHGH/5 5 + 24 [4, 24]: 0 pg hGH/10^6 cells

Source: patent US20050255595A1, “Genetically modified non-human mammal cells, procedure for their production and use in toxicity tests” (priority 2002, published 2005)
